# Legend:
# [1] = biological target: AUR1 (Homo sapiens, UniProt Q96GD4); experiment: Enzyme inhibition activity, AUR1; type: biochemical
# Protocol: (§1) Operating as described above in the tests of inhibition activity on enzymes, or in an analogous way, the following data were obtained for 2-methyl-N-{4-[2-(methylamino)-2-oxoethyl]-1-oxo-2,9-dihydro-1H-beta-carbolin-6-yl}hexanamide (Compound XIIIh). The same compound was tested for cytotoxic activity on cells as described below.
# [2] = biological target: T1, AUR2 (Homo sapiens, UniProt O14965); experiment: Inhibition assay of Aurora-2 activity; type: biochemical; details: Enzyme AUR2
# T1 sequence (O14965 1-403): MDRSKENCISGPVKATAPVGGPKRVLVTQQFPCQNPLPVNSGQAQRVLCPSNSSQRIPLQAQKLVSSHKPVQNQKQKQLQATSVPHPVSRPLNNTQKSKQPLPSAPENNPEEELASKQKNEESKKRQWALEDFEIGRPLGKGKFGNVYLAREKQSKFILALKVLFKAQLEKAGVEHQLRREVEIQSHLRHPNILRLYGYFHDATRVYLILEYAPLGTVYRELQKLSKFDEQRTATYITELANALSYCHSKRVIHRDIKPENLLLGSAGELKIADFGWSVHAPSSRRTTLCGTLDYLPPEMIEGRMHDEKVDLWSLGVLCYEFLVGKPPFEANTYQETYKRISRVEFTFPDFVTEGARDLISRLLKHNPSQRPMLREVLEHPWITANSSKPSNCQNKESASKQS
# Protocol: Inhibition assay of Aurora-2 activity
# The inhibiting activity and the potency of selected compounds was determined through a method of assay based on the use of the streptavidin scintillation proximity assay beads (amershampharmacia biotech) run in a 96 well plates. At the end of the reaction, the biotinylated peptide substrate was captured with the beads and subsequently allowed to stratify using CsCl. When a radioactivity labeled phosphate moiety was transferred by the kinase to the beads-bound peptide, light emitted was measured in a scintillation counter.
# The inhibition assay of Aurora-2 activity was performed in 96 wells plate according to the following protocol:
# 8 µM biotinylated peptide (4 repeats of LRRWSLG), 10 µM ATP (0.5 uCi P^33g-ATP), 10 nM Aurora2, 10 µM inhibitor in a final volume of 60 µl buffer (HEPES 50 mM pH 7.0, MgCl2 10 mM, 1 mM DTT, 0.125 mg/ml BSA, 3µM orthovanadate) were added to each well of a 96 U bottom well plate. After 30 minutes at room temperature incubation, reaction was stopped and biotinylated peptide captured by adding 100 µl of bead suspension.
# 100 µl of CsCl 7.5 M were added to each well and let stand one hour before radioactivity was counted in the Top-Count instrument.
# Results: data were analyzed and expressed as % inhibition referred to total activity of enzyme (=100%). […]
# [3] = biological target: T2, CDK2/CYCA (Homo sapiens, UniProt P24941); experiment: Inhibition assay of Cdk2/Cyclin A activity; type: biochemical; details: Enzyme CDK2/CYCA
# T2 construct: made in house
# Protocol: Inhibition assay of Cdk2/Cyclin A activity
# 1.5 µM histone H1 substrate, 25 µM ATP (0.2 µCi P33γ-ATP), 30 ng of baculovirus co-expressed Cdk2/Cyclin A, 10 µM inhibitor in a final volume of 100 µl buffer (TRIS HCl 10 mM pH 7.5, MgCl2 10 mM, 7.5 mM DTT) were added to each well of a 96 U bottom well plate. After 10 min at 37 °C incubation, reaction was stopped by 20 µl EDTA 120 mM.
# 100 µl were transferred from each well from the kinase reaction to MultiScreen plate, to allow substrate binding to phosphocellulose filter. Plates were then washed 3 times with 150 µl/well PBS Ca^++/Mg^++ free and filtered by MultiScreen filtration system.
# Filters were allowed to dry at 37°C, then 100 µl/well scintillant were added and 33P labeled histone H1 was detected by radioactivity counting in the Top-Count instrument. Results: data were analyzed and expressed as % inhibition referred to total activity of enzyme (=100%).
# All compounds showing inhibition ≥ 50 % were further analyzed in order to study and define potency (IC50) as well as the kinetic-profile of inhibitor through Ki calculation. IC50 determination: the protocol used was the same described above, where inhibitors were tested at different concentrations ranging from 0.0045 to 10 µM. […]
# [4] = biological target: FGFR1 (Homo sapiens, UniProt P11362); experiment: Enzyme inhibition activity, FGFR1; type: biochemical
# Protocol: as §1
# [5] = biological target: GSK3beta (Homo sapiens, UniProt P49841); experiment: Enzyme inhibition activity, GSK3beta; type: biochemical
# Protocol: as §1
# [6] = biological target: T3, JAK3 (Homo sapiens, UniProt P52333); experiment: Enzyme inhibition activity, JAK3; type: biochemical
# T3 sequence (P52333 1-1124): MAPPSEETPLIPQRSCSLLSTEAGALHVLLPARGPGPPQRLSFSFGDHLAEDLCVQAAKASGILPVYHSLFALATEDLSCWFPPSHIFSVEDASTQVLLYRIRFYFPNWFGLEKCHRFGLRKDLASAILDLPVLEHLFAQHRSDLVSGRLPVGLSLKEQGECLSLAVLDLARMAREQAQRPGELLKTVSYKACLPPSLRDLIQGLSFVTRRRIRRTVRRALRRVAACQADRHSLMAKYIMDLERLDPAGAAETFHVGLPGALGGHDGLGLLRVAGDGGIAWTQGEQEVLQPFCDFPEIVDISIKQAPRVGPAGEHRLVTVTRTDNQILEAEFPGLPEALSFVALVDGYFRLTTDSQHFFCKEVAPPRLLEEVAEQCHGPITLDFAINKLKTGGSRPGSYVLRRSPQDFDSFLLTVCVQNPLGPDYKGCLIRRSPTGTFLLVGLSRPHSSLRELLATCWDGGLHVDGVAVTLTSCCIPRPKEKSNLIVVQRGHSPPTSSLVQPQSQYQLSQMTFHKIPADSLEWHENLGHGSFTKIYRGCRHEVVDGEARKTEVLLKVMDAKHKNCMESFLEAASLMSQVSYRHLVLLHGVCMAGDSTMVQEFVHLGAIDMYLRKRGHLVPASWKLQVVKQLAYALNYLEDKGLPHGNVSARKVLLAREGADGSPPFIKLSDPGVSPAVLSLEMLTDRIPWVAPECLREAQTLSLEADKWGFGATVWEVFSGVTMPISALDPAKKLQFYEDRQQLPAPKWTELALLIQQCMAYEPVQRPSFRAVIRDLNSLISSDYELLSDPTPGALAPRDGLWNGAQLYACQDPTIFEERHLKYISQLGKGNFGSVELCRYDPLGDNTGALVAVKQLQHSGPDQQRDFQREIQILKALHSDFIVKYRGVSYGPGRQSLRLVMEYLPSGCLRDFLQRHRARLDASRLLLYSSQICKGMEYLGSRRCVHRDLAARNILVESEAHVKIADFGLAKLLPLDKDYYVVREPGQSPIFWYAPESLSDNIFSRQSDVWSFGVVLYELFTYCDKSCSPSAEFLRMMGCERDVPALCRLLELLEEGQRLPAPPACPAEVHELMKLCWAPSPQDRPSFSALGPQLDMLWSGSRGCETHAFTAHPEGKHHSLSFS
# Protocol: as §1
# [7] = biological target: T4, PDK1 (Homo sapiens, UniProt O15530); experiment: Enzyme inhibition activity, PDK1; type: biochemical
# T4 sequence (O15530 1-556): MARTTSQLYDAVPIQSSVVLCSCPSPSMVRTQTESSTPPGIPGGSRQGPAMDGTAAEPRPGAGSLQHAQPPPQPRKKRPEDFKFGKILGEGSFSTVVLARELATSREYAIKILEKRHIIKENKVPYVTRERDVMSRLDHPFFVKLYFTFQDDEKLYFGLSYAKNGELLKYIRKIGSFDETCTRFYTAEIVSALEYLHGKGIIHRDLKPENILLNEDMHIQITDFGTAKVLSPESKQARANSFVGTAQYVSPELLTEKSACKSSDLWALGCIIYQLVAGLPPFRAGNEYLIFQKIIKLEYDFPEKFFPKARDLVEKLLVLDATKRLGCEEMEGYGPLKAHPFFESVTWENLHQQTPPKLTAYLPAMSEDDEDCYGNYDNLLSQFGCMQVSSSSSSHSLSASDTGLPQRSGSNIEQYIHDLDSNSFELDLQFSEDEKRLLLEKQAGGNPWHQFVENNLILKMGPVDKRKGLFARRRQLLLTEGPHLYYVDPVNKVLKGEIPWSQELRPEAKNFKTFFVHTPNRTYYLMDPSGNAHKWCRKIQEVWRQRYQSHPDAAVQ
# Protocol: as §1
# [8] = biological target: PKAalpha (Homo sapiens, UniProt P17612); experiment: Enzyme inhibition activity, PKAalpha; type: biochemical
# Protocol: as §1
# [9] = biological target: RET (Homo sapiens, UniProt P07949); experiment: Enzyme inhibition activity, RET; type: biochemical
# Protocol: as §1
# [10] = biological target: VEGFR2 (Homo sapiens, UniProt P35968); experiment: Enzyme inhibition activity, VEGFR2; type: biochemical
# Protocol: as §1
# [11] = biological target: VEGFR3 (Homo sapiens, UniProt P35916); experiment: Enzyme inhibition activity, VEGFR3; type: biochemical
# Protocol: as §1
# [12] = tested on: A2780; experiment: Cytotoxic activity on cells (cell proliferation, cellular ATP monitoring); type: cell-based; details: Homo sapiens; Cell Type A2780; concentration inhibiting cell proliferation by 50%; 72 hours treatment
# Protocol: Exponentially growing cells A2780 were seeded and incubated at 37°C in a humidified 5% CO2 atmosphere. After 24 hours, scalar doses of test compound were added to the medium and cells were incubated for additional 72 hours.
# At the end of treatment, cell proliferation was determined by a cellular ATP monitoring system which consists of a mixture of luciferase and luciferin, reconstituted in a lysis buffer; 100 µL/well of this solution were added to the cells. The plates were then shaken for 2 minutes in an orbital shaker and were read in a luminometer, with the signal linearly proportional to the cell number.
# VEGFR3, sequence (P35916 25-1363, species assumed): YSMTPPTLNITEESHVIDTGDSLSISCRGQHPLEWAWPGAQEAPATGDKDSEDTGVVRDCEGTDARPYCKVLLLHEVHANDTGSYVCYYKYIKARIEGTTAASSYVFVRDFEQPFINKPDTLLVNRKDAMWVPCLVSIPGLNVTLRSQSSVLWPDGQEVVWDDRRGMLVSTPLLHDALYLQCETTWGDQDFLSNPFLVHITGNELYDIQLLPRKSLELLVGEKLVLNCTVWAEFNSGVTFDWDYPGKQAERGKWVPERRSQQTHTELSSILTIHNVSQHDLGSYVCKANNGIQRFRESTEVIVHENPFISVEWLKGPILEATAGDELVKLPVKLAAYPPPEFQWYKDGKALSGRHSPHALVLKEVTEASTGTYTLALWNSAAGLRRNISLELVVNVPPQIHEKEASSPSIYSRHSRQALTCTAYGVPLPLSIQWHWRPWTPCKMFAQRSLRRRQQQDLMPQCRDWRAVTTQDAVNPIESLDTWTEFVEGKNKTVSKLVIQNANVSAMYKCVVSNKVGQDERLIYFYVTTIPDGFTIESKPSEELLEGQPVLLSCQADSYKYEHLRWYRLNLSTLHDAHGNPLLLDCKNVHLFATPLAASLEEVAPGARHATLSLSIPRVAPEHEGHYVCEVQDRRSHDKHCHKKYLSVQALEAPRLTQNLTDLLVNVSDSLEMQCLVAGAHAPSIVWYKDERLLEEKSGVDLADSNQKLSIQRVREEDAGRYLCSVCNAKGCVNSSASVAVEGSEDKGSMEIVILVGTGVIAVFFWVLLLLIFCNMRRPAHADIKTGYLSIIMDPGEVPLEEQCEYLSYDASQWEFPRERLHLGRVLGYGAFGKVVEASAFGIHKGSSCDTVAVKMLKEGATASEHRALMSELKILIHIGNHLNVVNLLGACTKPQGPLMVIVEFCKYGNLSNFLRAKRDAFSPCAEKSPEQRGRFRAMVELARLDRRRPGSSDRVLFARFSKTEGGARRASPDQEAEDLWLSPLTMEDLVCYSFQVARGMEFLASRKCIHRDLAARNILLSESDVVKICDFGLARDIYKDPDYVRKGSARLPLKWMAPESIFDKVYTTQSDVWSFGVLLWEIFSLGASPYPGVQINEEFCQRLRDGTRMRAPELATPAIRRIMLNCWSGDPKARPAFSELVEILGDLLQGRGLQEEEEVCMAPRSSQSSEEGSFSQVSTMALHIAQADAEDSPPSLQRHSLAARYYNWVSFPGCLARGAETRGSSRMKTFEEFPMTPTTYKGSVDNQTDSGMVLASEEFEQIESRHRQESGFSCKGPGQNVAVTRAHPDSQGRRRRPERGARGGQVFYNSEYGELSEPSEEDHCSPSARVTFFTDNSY
# GSK3beta, sequence (P49841 whole entry, species assumed): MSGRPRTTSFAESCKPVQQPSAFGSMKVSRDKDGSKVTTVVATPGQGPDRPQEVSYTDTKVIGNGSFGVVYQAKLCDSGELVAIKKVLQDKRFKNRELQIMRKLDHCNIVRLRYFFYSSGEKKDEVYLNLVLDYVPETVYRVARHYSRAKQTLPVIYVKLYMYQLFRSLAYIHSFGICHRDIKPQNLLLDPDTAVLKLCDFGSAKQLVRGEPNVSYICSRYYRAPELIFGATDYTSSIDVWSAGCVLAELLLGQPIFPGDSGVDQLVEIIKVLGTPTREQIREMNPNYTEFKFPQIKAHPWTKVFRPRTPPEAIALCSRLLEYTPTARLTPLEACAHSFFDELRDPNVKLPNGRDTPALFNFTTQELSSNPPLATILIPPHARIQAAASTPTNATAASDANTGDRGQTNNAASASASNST
# AUR1, sequence (Q96GD4 whole entry): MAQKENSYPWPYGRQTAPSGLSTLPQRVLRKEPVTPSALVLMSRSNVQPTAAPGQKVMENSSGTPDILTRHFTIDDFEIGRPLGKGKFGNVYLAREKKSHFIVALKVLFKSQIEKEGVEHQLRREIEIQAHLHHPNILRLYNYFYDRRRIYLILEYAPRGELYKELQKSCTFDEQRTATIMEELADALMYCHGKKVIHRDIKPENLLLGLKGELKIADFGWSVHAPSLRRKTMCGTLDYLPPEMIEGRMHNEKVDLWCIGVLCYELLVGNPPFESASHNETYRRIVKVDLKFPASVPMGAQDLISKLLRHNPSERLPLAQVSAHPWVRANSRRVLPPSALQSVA
# FGFR1, sequence (P11362 22-822, species assumed): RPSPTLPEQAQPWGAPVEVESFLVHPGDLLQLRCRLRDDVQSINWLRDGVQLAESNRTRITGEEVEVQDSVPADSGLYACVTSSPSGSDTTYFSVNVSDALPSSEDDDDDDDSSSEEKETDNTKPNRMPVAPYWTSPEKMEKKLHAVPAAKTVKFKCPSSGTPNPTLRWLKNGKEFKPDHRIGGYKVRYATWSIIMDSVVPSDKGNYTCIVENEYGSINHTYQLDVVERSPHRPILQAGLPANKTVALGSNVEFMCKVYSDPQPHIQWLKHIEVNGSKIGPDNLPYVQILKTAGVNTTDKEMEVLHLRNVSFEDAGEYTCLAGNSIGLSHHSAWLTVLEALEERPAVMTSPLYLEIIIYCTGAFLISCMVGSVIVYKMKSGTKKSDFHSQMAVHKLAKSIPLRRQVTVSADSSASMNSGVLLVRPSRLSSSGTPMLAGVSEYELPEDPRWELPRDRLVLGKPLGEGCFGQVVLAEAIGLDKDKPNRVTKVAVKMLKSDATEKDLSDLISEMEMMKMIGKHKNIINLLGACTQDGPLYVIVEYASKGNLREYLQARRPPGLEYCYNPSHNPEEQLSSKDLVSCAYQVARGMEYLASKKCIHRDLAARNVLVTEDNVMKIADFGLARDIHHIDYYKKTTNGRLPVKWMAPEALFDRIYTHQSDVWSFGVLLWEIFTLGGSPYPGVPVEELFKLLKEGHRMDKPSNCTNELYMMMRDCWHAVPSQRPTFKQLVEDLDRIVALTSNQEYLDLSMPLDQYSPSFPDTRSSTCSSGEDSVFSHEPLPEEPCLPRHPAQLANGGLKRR
# VEGFR2, sequence (P35968 20-1356, species assumed): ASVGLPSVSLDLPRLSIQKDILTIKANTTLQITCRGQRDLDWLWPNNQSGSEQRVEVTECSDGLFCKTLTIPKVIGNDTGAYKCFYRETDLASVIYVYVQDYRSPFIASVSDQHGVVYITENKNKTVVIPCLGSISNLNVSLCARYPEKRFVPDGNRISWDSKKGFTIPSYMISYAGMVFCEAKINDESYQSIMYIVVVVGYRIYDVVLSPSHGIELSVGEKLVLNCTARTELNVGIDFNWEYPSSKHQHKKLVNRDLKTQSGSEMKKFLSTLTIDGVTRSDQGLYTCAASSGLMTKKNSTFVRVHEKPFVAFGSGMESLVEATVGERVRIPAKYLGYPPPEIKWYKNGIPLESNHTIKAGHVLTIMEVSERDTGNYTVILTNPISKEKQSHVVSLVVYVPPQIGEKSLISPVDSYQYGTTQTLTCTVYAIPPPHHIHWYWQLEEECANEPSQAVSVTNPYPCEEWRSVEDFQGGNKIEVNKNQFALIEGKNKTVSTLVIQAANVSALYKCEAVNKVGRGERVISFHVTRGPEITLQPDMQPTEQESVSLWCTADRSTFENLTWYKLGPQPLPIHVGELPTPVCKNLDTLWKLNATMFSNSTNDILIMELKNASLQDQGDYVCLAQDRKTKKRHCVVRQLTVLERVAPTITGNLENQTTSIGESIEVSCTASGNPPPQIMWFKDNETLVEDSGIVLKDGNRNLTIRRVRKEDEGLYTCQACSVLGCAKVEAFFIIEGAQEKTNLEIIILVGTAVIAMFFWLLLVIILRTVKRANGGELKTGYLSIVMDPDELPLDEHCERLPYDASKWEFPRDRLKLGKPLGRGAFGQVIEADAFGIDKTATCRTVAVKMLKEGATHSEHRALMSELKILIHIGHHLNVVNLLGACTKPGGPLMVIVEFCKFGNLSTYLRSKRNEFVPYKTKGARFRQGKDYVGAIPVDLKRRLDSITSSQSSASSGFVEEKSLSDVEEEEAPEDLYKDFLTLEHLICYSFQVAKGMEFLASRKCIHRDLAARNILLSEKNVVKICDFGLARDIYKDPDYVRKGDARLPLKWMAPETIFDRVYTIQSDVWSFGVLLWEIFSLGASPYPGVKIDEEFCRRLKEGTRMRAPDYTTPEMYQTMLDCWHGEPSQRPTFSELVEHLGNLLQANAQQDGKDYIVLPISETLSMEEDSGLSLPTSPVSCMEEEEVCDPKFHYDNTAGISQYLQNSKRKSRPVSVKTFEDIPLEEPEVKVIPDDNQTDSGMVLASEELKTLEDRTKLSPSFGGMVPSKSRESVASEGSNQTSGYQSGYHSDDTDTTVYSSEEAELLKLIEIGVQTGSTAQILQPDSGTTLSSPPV
smiles,measurement,setting,value
"CCCCC(C)C(=O)Nc1ccc2[nH]c3c(=O)[nH]cc(CC(=O)NC)c3c2c1 (stereo not drawn) [Compound XIIIh, 2-Methyl-N-{4-[2-(methylamino)-2-oxoethyl]-1-oxo-2,9-dihydro-1H-beta-carbolin-6-yl}hexanamide]",IC50,[1],0.423 µM
same,IC50,[2],0.051 µM
same,IC50,[3],1.7 µM
same,IC50,[4],2.52 µM
same,IC50,[5],1.89 µM
same,IC50,[6],1.76 µM
same,IC50,[7],1.3 µM
same,IC50,[8],0.866 µM
same,IC50,[9],1.08 µM
same,IC50,[10],1.92 µM
same,IC50,[11],0.594 µM
same,IC50,[12],3.61 µM

# — EP2003129B1, “1H-Pyrido[3,4-B]indol-1-one and 2,3,4,9-Tetrahydro-1H-Beta-Carbolin-1-one Derivatives” (Nerviano Medical Sciences S.r.l., priority 2007, dated 2008)
